Test system: Sprague-Dawley adult male rats
Assay: Traumatic brain injury (lateral fluid percussion): ICP, CPP and pbtO2 monitoring
Type: in vivo, rat
Procedure: Sprague-Dawley adult male rats were divided into 4 groups: vehicle, E2-SO4 (1 mg/kg), sham+vehicle and sham+E2-SO4; n=5/group. The TBI model was lateral fluid percussion injury (LFP), induced via a hydraulic pressure pulse to the anesthetized rat's exposed brain. This was introduced through a burr hole in the lateral skull prepared one day prior to LFP. A single iv dose of E2-SO4 or saline vehicle was administered 1 hr after LFP. Physiological parameters were measured 24 hr post-injury.
In a second experiment, the efficacy of E2-SO4 treatment for TBI in a lateral fluid percussion (LFP) model was examined. This involved 6 groups of rats (n=5/group). All rats received a craniectomy. Groups 1, 2, 4 and 5 received LFP injury. Groups 1 and 4 were treated with E2 (1 mg/kg) 1 hr post-injury, groups 2 and 5 were vehicle (Veh)-treated and groups 3 and 6 were sham. Groups 1-3 underwent intracranial pressure (ICP), cerebral perfusion pressure (CPP) and partial oxygen pressure (pbtO2) monitoring. Groups 4-6 underwent fludoexoyglucose (FDG)-PET/CT and diffusion tensor imaging (DTI) analysis on days 1 and 7 post-induction. Relative standard uptake values (SUV) of upper half of brain to central value, fractional anisotropy (FA) and apparent diffusion coefficient (ADC) maps were calculated.
FIG. 48B is a plot of cerebral perfusion pressure, which is a derivative of mean arterial pressure less ICP. […] The X axis is shown for an extended 2 hours to confirm stability for the various probes used.
The clinical manifestation of edema after TBI can be seen as increased intracranial pressure, with lower brain perfusion pressure and reduced oxygen tension. […] FIG. 44 compares treatments for TBI with hormones, measured over a 120 min period to control the effects of the invasive probe on pressures. The treatments are progesterone (T+progesterone: magenta), progesterone plus E2-SO4 (T+E+P: brown), E2-SO4 (T+E2SO4: red) and EE-3-SO4 (T+EE-3SO4: yellow).

Compound: C[C@]12CC[C@@H]3c4ccc(O)cc4CC[C@H]3[C@@H]1CC[C@@H]2O [17β-estradiol]
- oxygen delivery to the injured brain (FIG. 48, E2 treatment administered 24 hours after TBI): enhances oxygen delivery to the injured brain
- CPP (cerebral perfusion pressure) (TBI (LFP), 1 mg/kg 1 hr post-injury, Veh 65.2±1.4, sham 82.1±1.3): 75.7±1.4 mmHg
- pbtO2 (brain tissue oxygen partial pressure) (TBI (LFP), 1 mg/kg iv 1 hr after injury, 24 hr post-injury, vehicle 15.8±1.3, sham 39.6): 34.1±1.6 mmHg
